Values quoted from earlier work in US20240065969A1, “OPHTHALMIC TOPICAL CREAM FORMULATIONS AND USES THEREOF” (Glaukos Corporation, priority 2022, published 2024).

## CC[C@@H]1C(=O)OC[C@@H]1Cc1cncn1C [pilocarpine]
  pKa: ~6.5
